Patent publication US20150093821A1, “BIODEGRADABLE POLYURETHANES AND USE THEREOF” (CARNEGIE MELLON UNIVERSITY, priority 2003, published 2015)

Tests used:
[1] = tested on: alkaline phosphatase activity of mouse bone cells (OPC); experiment: Alkaline phosphatase activity of OPC with bioactive reagents or polymer foams; assay type: cell-based; conditions: 4 weeks, OD at 405 nm, medium with or without polymer, FIG. 5
Experimental: Bioactive polymers containing covalently bound dexamethasone and β-glycerophosphate were also synthesized and studied for potential use as bone scaffolds. In several studies, mouse bone cells (OPC) (9.6×10^4/well) were cultured in a 6-well tissue culture plate without polymer foam (blank column) with Dulbecoo's modified Eagle's medium only (DMEM); with 5 mM β-glycerophosphate (β-GP); with 100 nM dexamethasone (Dex); 50 μM ascorbic acid (Vc); with 50 μM ascorbic acid and 5 mM β-glycerophosphate (Vc+β-GP); with 50 μM ascorbic acid and 100 nM dexamethasone (Vc+Dex); with 50 μM ascorbic acid, 100 nM dexamethasone and 5 mM β-glycerophosphate (Vc+Dex+β-GP) for 4 weeks.
The same cells were cultured in a 6-well plate with the LDI-PEG400-glucose polymer (red column) using DMEM only. The polymer foams were synthesized with lysine ethyl ester diisocyanate (LDI), glucose and PEG only (DMEM); with LDI, glucose, PEG and β-glycerophosphate (β-GP); with LDI, glucose, PEG and dexamethasone (Dex); with LDI, glucose, PEG and ascorbic acid (Vc); with LDI, glucose, PEG, ascorbic acid and β-glycerophosphate (Vc+β-GP); with LDI, glucose, PEG, ascorbic acid and dexamethasone (Vc+Dex); and with LDI, glucose, PEG, ascorbic acid, 3-glycerophosphate and dexamethasone (Vc+Dex+β-GP). […] The alkaline phosphatase activity was determined by the OD at 405 nm in the medium with or without polymer. […]

[2] = tested on: type I collagen of GFP-MBMC; experiment: Western blot analysis for type I collagen; assay type: cell-based, mouse; conditions: two weeks of culture
Experimental: After two weeks of culture, the cells were harvested with Trypsin, subjected to a centrifuge and washed once with PBS. Thereafter, the lysis buffer/CLAP solution was added to the cells (Lysis buffer: 0.187 g HEPE, 0.4235 g NaCl, 0.001 g MgCl2 and 0.19 g EGTA dissolved in 50 ml PBS. CLAP solution: 4 μl each of chymostatin, leupeptin, antipain and pepstatin A in 100 μl PBS. Lysis buffer/CLAP solution: 100 μl CLAP solution added to 6.6 ml Lysis buffer). To assure complete rupture of the cells, the tubes were stored at −20° C. for 12 hrs. Total protein concentration was quantified using the BCA protein assay kit (Fisher Scientific, USA), which measured the light absorbance at 562 nm verses a standard curve on a microplate reader.
The protein obtained as described above was re-suspended in Laemmli sample buffer, followed by protein separation on an SDS-10% polyacrylamide gel. Western blotting was performed as described previously. […]
To ensure that equal amount of total protein was loaded to the membrane, GAPDH (glycerealdehyde-3-phosphate dehydrogenase) was detected using rat-anti-mouse GAPDH antibody (ICN Biochemicals, USA) followed by peroxidase-conjugated rabbit-anti-rat IgG antibody (E.Y. Laboratories, Inc. USA). […] Molecular weights of the proteins were determined using prestained molecular weight standards (14,300-200,000 molecular weight range; GIBCO BRL). […]

[3] = tested on: collagen type I in GFP-MBMC; experiment: Collagen type I production (Sirius Red F3B); assay type: cell-based, mouse; conditions: after 7 days culture, P<0.005
Experimental: Soluble calf skin collagen type I was used for the standard curves run with each assay (see FIG. 14). […] Three individual experiments were performed for type I collagen. The results were presented as the mean±standard deviation (n=3).

O=C1O[C@H]([C@@H](O)CO)C(O)=C1O [ascorbic acid]
alkaline phosphatase activity of OPC [1]: significantly increased | type I collagen secreted (Western blotting) [2]: higher concentrations | concentration of collagen type I relative to LDI-glycerol-PEG scaffold or tissue culture plate [3]: two times higher

O=P(O)(O)OC(CO)CO [β-glycerophosphate]
alkaline phosphatase activity of OPC [1]: more moderately
